Read-outs that look alike come from different tables or passages of the source. Non-standard residues stand in square brackets, D forms with d. Residues, ends and D or L forms follow the SMILES beside them. *: point of attachment. Sta = CC(C)C[C@H](N)[C@@H](O)CC(=O)O; Isovaleryl = CC(C)CC(=O)*
How the values were obtained:
Plasmepsin V (PM-V) = Plasmepsin V (PM-V) (Plasmodium falciparum (isolate 3D7), UniProt Q8I6Z5); conditions: known inhibitors, background; cited from earlier work
[1] = system: Plasmodium chabaudi ASS and ASCQ strains; assay: In vivo antimalarial efficacy 4-day suppressive test; conditions: NIH mice, 4.5 mpk orally once daily for four days, Day 4 postinoculation
Method: Briefly, NIH mice (n=8 per group) were inoculated i.p. with 2×10^7 parasitized (Plasmodium chabaudi ASS or ASCQ) red blood cells. […] Groups (n=6) including a vehicle control and chloroquine (CQ) as a reference drug were included. Parasitemia levels were determined on the day following the last treatment (Day 4).

[2] = molecular target: Plasmepsin-2 (PM-2; Plm II) (Plasmodium falciparum (isolate HB3), UniProt P46925); assay: Plasmepsin-2 enzyme inhibition assay; assay type: biochemical; conditions: Table 13; read-out: PM-2 IC50
Chain of Plasmepsin-2 (PM-2; Plm II) (P46925 125-453 limits assumed): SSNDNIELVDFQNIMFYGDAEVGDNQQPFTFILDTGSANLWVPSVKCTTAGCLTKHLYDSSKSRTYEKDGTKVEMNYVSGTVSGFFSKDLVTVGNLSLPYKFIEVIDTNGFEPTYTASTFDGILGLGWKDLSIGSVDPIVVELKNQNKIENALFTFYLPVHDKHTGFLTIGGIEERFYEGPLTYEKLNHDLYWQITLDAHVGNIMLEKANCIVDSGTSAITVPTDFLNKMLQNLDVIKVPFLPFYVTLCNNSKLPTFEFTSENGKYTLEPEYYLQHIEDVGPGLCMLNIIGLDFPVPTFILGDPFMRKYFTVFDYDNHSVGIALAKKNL
Procedure, shortened: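 Enzymes activated in pH 4.5 citrate/DTT buffer, then assayed in 50 mM sodium acetate pH 4.7, 0.01% Tween-20. Compounds added before fluorogenic peptide substrate (final 20 µM); 60 min at room temperature, fluorescence Ex/Em 360/535 nm, IC50 by curve fit.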

recombinant human BACE1 = recombinant human BACE1 (Homo sapiens, UniProt P56817); assay: β-Secretase (BACE1) enzyme inhibition FRET assay; assay type: biochemical; conditions: Table 13; read-out: BACE1 IC50
Chain of recombinant human BACE1 (P56817 46-501 limits assumed): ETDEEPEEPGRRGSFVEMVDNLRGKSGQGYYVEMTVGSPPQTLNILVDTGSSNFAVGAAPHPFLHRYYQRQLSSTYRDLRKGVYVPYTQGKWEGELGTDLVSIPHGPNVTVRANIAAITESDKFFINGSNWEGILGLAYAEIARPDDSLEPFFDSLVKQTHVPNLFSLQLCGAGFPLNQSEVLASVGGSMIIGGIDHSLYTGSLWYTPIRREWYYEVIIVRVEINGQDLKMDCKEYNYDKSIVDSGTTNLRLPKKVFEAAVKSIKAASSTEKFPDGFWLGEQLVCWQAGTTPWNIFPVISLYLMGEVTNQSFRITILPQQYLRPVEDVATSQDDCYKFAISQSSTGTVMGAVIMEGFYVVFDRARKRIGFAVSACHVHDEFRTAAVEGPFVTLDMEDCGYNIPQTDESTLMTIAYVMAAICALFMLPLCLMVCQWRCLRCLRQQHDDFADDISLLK
Method: The enzymatic inhibition activity assays were determined using the fluorescence resonance energy transfer (FRET) assay. The assays were performed in a 384-well plate format. […] CatD and CatE were activated by incubation in assay buffer (0.1 M NaOAc, 0.2 M NaCl, pH 3.5) at room temperature for 30 min. Subsequently, the rhBACE-1 substrate (R&D Systems, catalog# ES004), the Cathepsin D and Cathepsin E substrate (R&D Systems, Catalog # ES001) were added accordingly to final concentration 20 μM to initiate the reaction. After 60 min incubation at room temperature, the time-resolved fluorescence at Ex/Em=360 nm/460 nm was measured on an EnVision multilabel plate reader (Perkin-Elmer). The analytical software, GraphPad Prism 5.0 (GraphPad Software, Inc., USA) was used to generate IC50 values via non-linear regression analysis, which are reported in Tables 8-13 below as BACE1 IC50 values.

[3] = system: Plasmodium falciparum Dd2 (multi-drug resistant); assay: In vitro antimalarial assay (malaria SYBR Green I-based fluorescence, MSF), Dd2; assay type: cell-based; conditions: DD2, read-out: Dd2 IC50 (μM)
Method: In vitro antimalarial activity was determined by a malaria SYBR Green I-based fluorescence (MSF) method described previously by Smilkstein et al. (2004, which is incorporated herein by reference) with slight modification (Winter, et al., 2006, which is incorporated herein by reference). Stock solutions of each test drug were prepared in DMSO at a concentration of 20 mM. The drug solutions were serially diluted with culture medium and distributed to asynchronous parasite cultures on 96-well plates in quadruplicate in a total volume of 100 μL to achieve 0.5% parasitemia with a 2% hematocrit in a total volume of 100 pt. The plates were then incubated for 72 h at 37° C. After incubation, 100 μL of lysis buffer with 0.2 μL/mL SYBR Green I was added to each well. The plates were incubated at 37° C. for an hour in the dark and then placed in a 96-well fluorescence plate reader (Spectramax Gemini-EM; Molecular Diagnostics) with excitation and emission wavelengths at 497 nm and 520 nm, respectively, for measurement of fluorescence.
Antimalarial potency of compounds was determined by this technique for both Plasmodium falciparum 3D7 (CQ-sensitive) and Dd2 (multi-drug resistant) strains.

[4] = system: Plasmodium falciparum 3D7 (CQ-sensitive); assay: In vitro antimalarial assay (malaria SYBR Green I-based fluorescence, MSF), 3D7; assay type: cell-based
Procedure, shortened: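 Asynchronous P. falciparum 3D7 cultures (0.5% parasitemia, 2% hematocrit) were exposed to serially diluted compounds, in quadruplicate. Growth was then quantified by SYBR Green I fluorescence after adding lysis buffer containing 0.2 μL/mL dye.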

Cc1cccc(C)c1OCC(=O)N[C@@H](Cc1ccccc1)[C@@H](O)C[C@H](Cc1ccccc1)NC(=O)[C@H](C(C)C)N1CCCNC1=O [lopinavir]
IC50 (Plasmepsin V (PM-V)): > 20000 nM

CCN(CC)CCCC(C)Nc1ccnc2cc(Cl)ccc12 (centres unmarked) [CQ, chloroquine, reference compound]
% Inhibition of parasitemia [1]: 99.99%

CC(C)CC(=O)N[C@H](C(=O)N[C@H](C(=O)N[C@@H](CC(C)C)[C@@H](O)CC(=O)N[C@@H](C)C(=O)N[C@@H](CC(C)C)[C@@H](O)CC(=O)O)C(C)C)C(C)C [pepstatin A] (Isovaleryl-VV[Sta]A[Sta]-OH)
IC50 (Plasmepsin V (PM-V)): > 20000 nM

COc1ccc(C2(c3ccc(OC)cc3)NC(=N)N(CC3CCCCC3)C2=O)cc1 [Example 221, 3-(cyclohexylmethyl)-2-imino-5,5-bis(4-methoxyphenyl)-imidazolidin-4-one]
IC50 [2]: 2.39 nM | IC50 (recombinant human BACE1): 6010 nM | IC50 [3]: 0.367 µM | IC50 ([4]; 3D7, read-out: 3D7 IC50 (μM), Table 13): 0.207 µM | IC50 ([4]; 3D7, read-out: Pf3D7 IC50 (μM), Table 10): 0.383 µM

Reference: patent US9353089B2, “Compositions and methods for the treatment of malaria” (Saint Louis University, priority 2013, dated 2016)
